For assay [1], the system named is Staphylococcus aureus V41. In words: agar-dilution MIC. The format is cell-based.
Assay [2] concerns Staphylococcus aureus S13E. Format: cell-based. The note with it: agar dilution. (In agar dilution the substance is mixed into plates at graded concentrations.)
Assay [3] relates to Staphylococcus epidermidis EP11. The experiment in a line: agar-dilution MIC. Format: cell-based.
The subject of assay [4] is Haemophilus influenzae 76. In words: agar-dilution MIC. Format: cell-based.
In a further assay the test system is Streptococcus pyogenes. The experiment in a line: experimental bacterial infection in mice, ED50. The format is in vivo. The note with it: two doses, subcutaneously. As for the experimental part:
(§1) Some of the compounds of this invention have also shown in vivo antimicrobial activity against experimental bacterial infections. When two doses of test compound were administered to mice in experimental infections, the activity observed was measured as an ED50 value [effective dose in mg/kg to protect 50% of the test animals: see Warren Wick, et al., J. Bacteriol. 81, 233-235 (1961)].

In another assay the test system is Streptococcus pneumoniae. In words: experimental bacterial infection in mice, ED50. To be noted: two doses, subcutaneously. Format: in vivo. As for the experimental part: as §1
The subject of a further assay is Staphylococcus aureus. The experiment in a line: experimental bacterial infection in mice, ED50. The format is in vivo. The note with it: two doses, subcutaneously. As for the experimental part: as §1
The test system of assay [5] is Streptococcus faecium ATCC 9790. In words: agar-dilution MIC. The format is cell-based.
For assay [6], the system named is Streptococcus pyrogenes C203. In words: agar-dilution MIC. Format: cell-based.
Assay [7] has as its system Streptococcus sp. group D 2041. In words: agar-dilution MIC. The format is cell-based.
Assay [8] relates to Staphylococcus aureus X400. The experiment in a line: agar-dilution MIC. The format is cell-based.
For assay [9], the system named is Streptococcus pneumoniae Park 1. Format: cell-based. To be noted: agar dilution.
In assay [10] the test system is Haemophilus influenzae C.L. The experiment in a line: agar-dilution MIC. The format is cell-based.
The subject of assay [11] is Staphylococcus epidermidis 222. In words: agar-dilution MIC. The format is cell-based.
The test system of assay [12] is Staphylococcus aureus NRRL B313. In words: agar-dilution MIC. Format: cell-based.

In brackets after ≈: the same amount, converted by molar mass.

For `CN[C@H](CC(C)C)C(=O)N[C@H]1C(=O)N[C@@H](CC(N)=O)C(=O)N[C@H]2C(=O)N[C@H]3C(=O)N[C@H](C(=O)N[C@H](C(=O)O)c4cc(O)cc(O)c4-c4cc3ccc4O)[C@H](O)c3ccc(c(Cl)c3)Oc3cc2cc(c3O[C@@H]2O[C@H](CO)[C@@H](O)[C@H](O)[C@H]2O[C@H]2C[C@](C)(NC(=O)CC(C)Oc3ccccc3)[C@H](O)[C@H](C)O2)Oc2ccc(cc2Cl)[C@H]1O` (stereo partly drawn) [Compound 6, N^van --(1-oxo-3-phenoxy-n-butyl)vancomycin], the MIC in assay [1] was 2 µg/mL (≈ 1.24 µM); in assay [2] it was 2 µg/mL (≈ 1.24 µM); in assay [3] it was 8 µg/mL (≈ 4.96 µM); in assay [4] it was “-- (-- = not active at 128 mcg/ml)”; in assay [5], 2 µg/mL (≈ 1.24 µM); in assay [6], 1 µg/mL (≈ 0.621 µM). In addition, the MIC in [7] was 4 µg/mL (≈ 2.48 µM); in assay [8] it was 2 µg/mL (≈ 1.24 µM); in assay [9] it was 1 µg/mL (≈ 0.621 µM); in assay [10] it was “-- (-- = not active at 128 mcg/ml)”; in assay [11], 2 µg/mL (≈ 1.24 µM); in assay [12] it was 1 µg/mL (≈ 0.621 µM). For the same molecule, the ED50 with Streptococcus pyogenes came to 3.2 mg/kg/2; in the assay with Streptococcus pneumoniae, 1.8 mg/kg/2; with Staphylococcus aureus, 3.7 mg/kg/2.
For the molecule `CN[C@H](CC(C)C)C(=O)N[C@H]1C(=O)N[C@@H](CC(N)=O)C(=O)N[C@H]2C(=O)N[C@H]3C(=O)N[C@H](C(=O)N[C@H](C(=O)O)c4cc(O)cc(O)c4-c4cc3ccc4O)[C@H](O)c3ccc(c(Cl)c3)Oc3cc2cc(c3O[C@@H]2O[C@H](CO)[C@@H](O)[C@H](O)[C@H]2O[C@H]2C[C@](C)(NC(=O)CC(C)c3cccs3)[C@H](O)[C@H](C)O2)Oc2ccc(cc2Cl)[C@H]1O` (stereo partly drawn) [Compound 7, N^van --[1-oxo-3-(2-thienyl)-n-butyl]vancomycin], the MIC in assay [1] turned out to be 1 µg/mL (≈ 0.624 µM); in [2] it was 2 µg/mL (≈ 1.25 µM); in assay [3], 8 µg/mL (≈ 5 µM); in assay [4], 128 µg/mL (≈ 79.9 µM); in [5], 2 µg/mL (≈ 1.25 µM); in assay [6], 1 µg/mL (≈ 0.624 µM). The MIC in assay [7] is 4 µg/mL (≈ 2.5 µM); in assay [8], 1 µg/mL (≈ 0.624 µM); in assay [9], 0.5 µg/mL (≈ 0.312 µM); in [10] it was “-- (-- = not active at 128 mcg/ml)”; in assay [11], 2 µg/mL (≈ 1.25 µM); in [12] it was 1 µg/mL (≈ 0.624 µM). For the same molecule, the ED50 in the assay on Streptococcus pyogenes came out at 3.38 mg/kg/2; in the assay on Streptococcus pneumoniae it was 2.3 mg/kg/2; in the assay with Staphylococcus aureus, 3.05 mg/kg/2.
As to “N^van -[1-oxo-2-(phenylthio)ethyl]vancomycin [Compound 10]”, the MIC in assay [1] was determined as 1 µg/mL; in assay [2], 1 µg/mL; in assay [3], 4 µg/mL; in assay [4], 32 µg/mL; in assay [5], 1 µg/mL; in assay [6], 0.5 µg/mL. Further, the MIC stood at 4 µg/mL in [7]; 1 µg/mL in assay [8]; 0.5 µg/mL in assay [9]; 128 µg/mL in [10]; 2 µg/mL in assay [11]; 1 µg/mL in assay [12]. Further, the figures for the ED50 in the assay on Streptococcus pyogenes, in the assay on Streptococcus pneumoniae and in the assay on Staphylococcus aureus were 4.45 mg/kg/2, 1.9 mg/kg/2 and 2.3 mg/kg/2, respectively.

The values above are taken from patent publication US4643987A, “Modified glycopeptides” (Eli Lilly and Company, priority 1985, dated 1987).
